We go through eight compounds from PubChem BioAssay (NCI).

Where “and” joins values, the source holds several entries; their conditions need not be identical. Identical values can stand only once.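 Compound exposure: 48 hours, 5 concentrations, 96-well plates. GI50 = concentration required for 50% inhibition of growth. TGI denotes the concentration required for complete inhibition of growth.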

Among the test systems are BT-549 breast; COLO 205 colon; HOP-62 NSCLC; K-562 leukemia; MCF7 breast; OVCAR-3 ovarian; SF-539 CNS; SK-MEL-5 melanoma; SNB-75 CNS; SW-620 colon.
Holding throughout (assay): NCI-60 cell line screen, 48 h

In the case of `Cc1cc(C)c2c(n1)sc1c(N)ncnc12`, the GI50 in the assay on BT-549 breast is 11.3 µM; in the assay with COLO 205 colon, 17 µM; with HOP-62 NSCLC, more than 25 µM; with K-562 leukemia it was more than 25 µM; in the assay on MCF7 breast, more than 25 µM; in the assay with OVCAR-3 ovarian, more than 25 µM. Also, the GI50 in the assay with SF-539 CNS was more than 24.1 µM; in the assay on SK-MEL-5 melanoma it was more than 25 µM; with SNB-75 CNS, more than 20.8 µM; in the assay with SW-620 colon, more than 25 µM. The TGI with BT-549 breast, in the assay with COLO 205 colon, in the assay with HOP-62 NSCLC, in the assay with K-562 leukemia, in the assay on MCF7 breast and with OVCAR-3 ovarian was more than 25 µM in each case. The TGI in the assay on SF-539 CNS, in the assay with SK-MEL-5 melanoma, in the assay with SNB-75 CNS and with SW-620 colon was more than 25 µM each time.

Regarding `Cc1nc2ccc(Br)cc2c(=O)n1-c1ccc(NC2OCC(O)C(O)C2O)cc1` (stereo not drawn), the GI50 with BT-549 breast was 24.2 µM and 99.5 µM; in the assay with COLO 205 colon, more than 100 µM; in the assay on K-562 leukemia it was 17.3 µM and > 100 µM; in the assay with MCF7 breast, 20.8 µM and > 100 µM; in the assay on OVCAR-3 ovarian, 34.8 µM and > 100 µM; with SF-539 CNS, 18.3 µM and > 100 µM. Besides, the GI50 with SNB-75 CNS is 38.7 µM and 92.3 µM; in the assay on SW-620 colon, 17.8 µM and > 100 µM. The TGI with BT-549 breast is 53.9 µM and > 100 µM; in the assay on COLO 205 colon, more than 100 µM; in the assay on HOP-62 NSCLC, more than 100 µM; in the assay on K-562 leukemia, more than 100 µM; in the assay on MCF7 breast it was 51.9 µM and > 100 µM; with OVCAR-3 ovarian it was more than 100 µM. The TGI is 37.2 µM and > 100 µM in the assay with SF-539 CNS; more than 100 µM in the assay on SK-MEL-5 melanoma; more than 100 µM in the assay on SNB-75 CNS; 47 µM and > 100 µM in the assay on SW-620 colon.

On to `Cn1cccc1-c1cc(-c2ccccc2)[nH]c(=O)c1C#N`, for which the GI50 with BT-549 breast, in the assay on COLO 205 colon, in the assay with HOP-62 NSCLC, in the assay with K-562 leukemia, with MCF7 breast and in the assay with OVCAR-3 ovarian was more than 100 µM throughout. Further, the GI50 in the assay on SF-539 CNS is more than 100 µM; in the assay on SK-MEL-5 melanoma, more than 100 µM; in the assay with SNB-75 CNS it was 45.1 µM; in the assay with SW-620 colon, more than 100 µM. The TGI with BT-549 breast, in the assay on COLO 205 colon, in the assay on HOP-62 NSCLC, with K-562 leukemia, in the assay on MCF7 breast and with OVCAR-3 ovarian was more than 100 µM in each case. Besides, the TGI with SF-539 CNS, in the assay with SK-MEL-5 melanoma, with SNB-75 CNS and in the assay with SW-620 colon was more than 100 µM each time.

On to `CCCCCN(CCCCC)CC(O)c1cc(Cl)ccc1OC` (stereo not drawn), for which the GI50 was 15.9 µM in the assay with BT-549 breast; 5.11 µM in the assay on COLO 205 colon; 12 µM in the assay on HOP-62 NSCLC; 3.81 µM with K-562 leukemia; 0.528 µM in the assay on MCF7 breast; 10.8 µM in the assay on OVCAR-3 ovarian. Besides, the GI50 in the assay with SF-539 CNS is 10.8 µM; with SK-MEL-5 melanoma it was 5.75 µM; in the assay with SNB-75 CNS, 0.197 µM; in the assay with SW-620 colon, 4.66 µM. The TGI in the assay on BT-549 breast turned out to be 38.3 µM; in the assay with COLO 205 colon, 18.6 µM; in the assay on HOP-62 NSCLC, 26.7 µM; in the assay on K-562 leukemia, 20.3 µM; with MCF7 breast it was 2.66 µM; with OVCAR-3 ovarian, 23.6 µM. Moreover, the TGI in the assay with SF-539 CNS amounted to 24.3 µM; in the assay on SK-MEL-5 melanoma, 18.5 µM; in the assay on SNB-75 CNS, 5.83 µM; with SW-620 colon, 18.2 µM.

As to `CC1CN(S(=O)(=O)c2oc(-c3ccc(Cl)cc3)nc2C#N)CC(C)O1` (stereo not drawn), the GI50 is 1.97 µM in the assay on BT-549 breast; 2.04 µM in the assay on COLO 205 colon; 14 µM in the assay on HOP-62 NSCLC; 2.07 µM with K-562 leukemia; 1.59 µM in the assay with MCF7 breast; 1.56 µM in the assay on OVCAR-3 ovarian. In addition, the GI50 was 1.78 µM in the assay on SF-539 CNS, 2.27 µM in the assay with SK-MEL-5 melanoma, 10.6 µM in the assay with SNB-75 CNS and 1.36 µM in the assay with SW-620 colon. Also, the TGI in the assay with BT-549 breast was 4.49 µM; in the assay with COLO 205 colon, 4.35 µM; with HOP-62 NSCLC, 42.2 µM; in the assay with K-562 leukemia it was more than 100 µM; in the assay with MCF7 breast, 3.94 µM; in the assay on OVCAR-3 ovarian, 3.12 µM. Further, the TGI amounted to 3.28 µM in the assay on SF-539 CNS, 5.16 µM in the assay on SK-MEL-5 melanoma, 22.7 µM with SNB-75 CNS and 3.09 µM in the assay with SW-620 colon.

As to `Cc1ncc(C(=O)Nc2ccc(CN3CCN(C)CC3)c(C(F)(F)F)c2)cc1C#Cc1ccc(N)nc1`, the GI50 with BT-549 breast is 1.2 µM; with COLO 205 colon, 0.239 µM; with HOP-62 NSCLC it was 0.426 µM; with K-562 leukemia, 0.00333 µM; in the assay with MCF7 breast it was 0.903 µM; in the assay on OVCAR-3 ovarian it was 0.556 µM. In addition, the GI50 with SF-539 CNS is 0.367 µM; in the assay on SK-MEL-5 melanoma, 0.532 µM; with SNB-75 CNS, 0.434 µM; in the assay with SW-620 colon it was 0.244 µM. The TGI with BT-549 breast is 4.09 µM; with COLO 205 colon, 4.55 µM; with HOP-62 NSCLC it was 2.6 µM; in the assay on K-562 leukemia, 24.5 µM; with MCF7 breast it was 4.89 µM; in the assay with OVCAR-3 ovarian, 4.16 µM. The TGI in the assay with SF-539 CNS worked out at 1.1 µM; in the assay with SK-MEL-5 melanoma it was 1 µM; in the assay with SNB-75 CNS, 1.1 µM; in the assay on SW-620 colon it was 1.36 µM.

Consider `O=c1cc(-c2ccc(O)cc2)oc2cc(O[C@@H]3O[C@H](CO)[C@@H](O)[C@H](O)[C@H]3O)cc(O)c12`, for which the TGI with BT-549 breast, in the assay with COLO 205 colon, with HOP-62 NSCLC, with K-562 leukemia, in the assay on MCF7 breast and with OVCAR-3 ovarian was more than 100 µM throughout. Moreover, the TGI in the assay on SF-539 CNS, in the assay with SK-MEL-5 melanoma, with SNB-75 CNS and in the assay with SW-620 colon was more than 100 µM throughout.

As for `Cc1cc(Cl)ccc1OCC(=O)Nc1nc(N)nc(N)n1`, the TGI with BT-549 breast, in the assay with COLO 205 colon, in the assay with HOP-62 NSCLC, in the assay with K-562 leukemia, with MCF7 breast and with OVCAR-3 ovarian was more than 100 µM throughout. Further, the TGI in the assay with SF-539 CNS, in the assay on SK-MEL-5 melanoma, in the assay with SNB-75 CNS and in the assay with SW-620 colon was more than 100 µM in each case.
